Reference: US20100210602A1, “PhoU (PerF), A P[…] INVOLVED IN [sequence] FORMATION AND TOLERANCE TO MULTIPLE ANTIBIOTICS AND [sequence] AS A DRUG TARGET FOR [sequence] BACTERIA” (priority 2006, published 2010)
≈ marks a conversion by molar mass, not a printed value. Read-outs that look alike come from different tables or passages of the source.

What was measured:
PhoU mutant (JHU-313) [1] = test: Sequential antibiotic exposure of ampicillin persisters (CFU); type: cell-based, E. coli; settings: 20 h after 1.5 h ampicillin pre-exposure; ampicillin 100, gentamicin 20, trimethoprim 16, norfloxacin 5 μg/ml
[2] = test system: PhoU deletion mutant (ΔphoU); type: cell-based
[3] = test system: JHU-313 containing pVector; test: Kirby-Bauer paper disc assay, zone inhibition; settings: Escherichia coli, read-out: zone inhibition
[4] = test system: PhoU transposon mutant (JHU-313); type: cell-based
JHU-313 containing pPhoU [5] = test: MIC/MBC by serial two-fold dilutions in LB broth; type: cell-based, E. coli; settings: Escherichia coli, 16 h at 37° C.
JHU-313 = test: Kirby-Bauer paper disc assay, zone inhibition; settings: Escherichia coli, read-out: zone inhibition
wild type strain W3110 [6] = type: cell-based
JHU-313 containing pPhoU [7] = test: Kirby-Bauer paper disc assay, zone inhibition; settings: Escherichia coli, read-out: zone inhibition
wild type strain W3110 [8] = type: cell-based, E. coli; settings: 20 h after 1.5 h ampicillin pre-exposure; ampicillin 100, gentamicin 20, trimethoprim 16, norfloxacin 5 μg/ml
[9] = test system: JHU-313 containing pVector; test: MIC/MBC by serial two-fold dilutions in LB broth; type: cell-based, E. coli; settings: Escherichia coli, 16 h at 37° C.
W3110 = test: microbe, parasite or virus in culture; settings: Escherichia coli, read-out: zone inhibition
wild type strain W3110 [10] = test: microbe, parasite or virus in culture; type: cell-based, E. coli; settings: Escherichia coli, W3110, LB broth, 16 h at 37° C.
PhoU mutant (JHU-313) [11] = test: MIC/MBC by serial two-fold dilutions in LB broth; type: cell-based, E. coli; settings: Escherichia coli, 16 h at 37° C.
[12] = log phase, 1 week, Ap100, Norf3
[13] = log phase, 5 hr, ampicillin 100 μg/ml (Ap100), norfloxacin 3 μg/ml (Norf3)
[14] = log phase, 3 days, Ap100, Norf3
[15] = log phase, 5 days, Ap100, Norf3
[16] = log phase, 10 days, Ap100, Norf3
[17] = log phase, ampicillin 100 μg/ml, norfloxacin 3 μg/ml
[18] = stationary phase, 1 week, Ap100, Norf3
[19] = stationary phase, 5 hr, ampicillin 100 μg/ml (Ap100), norfloxacin 3 μg/ml (Norf3)
[20] = stationary phase, 1 day, Ap100, Norf3
[21] = stationary phase, 3 days, Ap100, Norf3
[22] = stationary phase, 5 days, Ap100, Norf3
[23] = stationary phase, 10 days, Ap100, Norf3
[24] = stationary phase, norfloxacin 3 μg/ml
[25] = stationary phase, 3 μg/ml, 120 hr exposure

`CCn1cc(C(=O)O)c(=O)c2cc(F)c(N3CCNCC3)cc21` [Norfloxacin, norfloxacin] was tested, and the “CFU after second antibiotic exposure” value (PhoU mutant (JHU-313) [1]) was 0 CFU/ml, the CFU [2, 12] was 0 CFU and the CFU [2, 13] was 5 × 10^7 CFU. The CFU ([2]; log phase, 1 day, Ap100, Norf3) was 1 × 10^6 CFU, the CFU [2, 14] was 0 CFU and the CFU [2, 15] was 0 CFU. The CFU [2, 16] was 0 CFU, the “time to killing of all cells” value [2, 17] was 1 days and the CFU [2, 18] was 0 CFU. The CFU [2, 19] was 6 × 10^8 CFU, the CFU [2, 20] was 2 × 10^8 CFU and the CFU [2, 21] was 3 × 10^5 CFU. The CFU [2, 22] was 0 CFU, the CFU [2, 23] was 0 CFU and the “time to complete killing” value [2, 24] was no more than 5 days. It also gave a zone of inhibition at 0.1 µg/mL [3] of 29 mm, a zone of inhibition at 0.5 µg/mL [3] of 35 mm and a zone of inhibition at 2 µg/mL [3] of 40 mm. The zone of inhibition at 4 µg/mL [3] was 44 mm, the CFU [4, 12] was 0 CFU and the CFU [4, 13] was 2 × 10^7 CFU. The CFU ([4]; log phase, 1 day, Ap100, Norf3) was 4 × 10^5 CFU, the CFU [4, 14] was 0 CFU and the CFU [4, 15] was 0 CFU. The CFU [4, 16] was 0 CFU, the “time to killing of all cells” value [4, 17] was 1 days and the viable bacteria left [4, 25] was “no viable bacteria were left”. For the same molecule, the CFU [4, 18] was 0 CFU, the CFU [4, 19] was 3 × 10^8 CFU and the CFU [4, 20] was 4.5 × 10^7 CFU. The CFU [4, 21] was 2 × 10^5 CFU, the CFU [4, 22] was 0 CFU and the CFU [4, 23] was 0 CFU. The “time to complete killing” value [4, 24] was no more than 5 days, the MBC (JHU-313 containing pPhoU [5]; read-out: MBC) was 1 µg/mL (≈ 3.13 µM) and the MIC (JHU-313 containing pPhoU [5]; read-out: MIC) was 0.5 µg/mL (≈ 1.57 µM). For the same molecule, the zone of inhibition at 0.1 µg/mL (JHU-313) was 28 mm, the zone of inhibition at 0.5 µg/mL (JHU-313) was 30 mm and the zone of inhibition at 2 µg/mL (JHU-313) was 34 mm. The zone of inhibition at 4 µg/mL (JHU-313) was 37 mm, the CFU (wild type strain W3110 [6]; [12]) was 0 CFU and the CFU (wild type strain W3110 [6]; [13]) was 1 × 10^8 CFU. For the same molecule, the CFU (wild type strain W3110 [6]; log phase, 1 day, Ap100, Norf3) was 4 × 10^6 CFU, the CFU (wild type strain W3110 [6]; [14]) was 5 × 10^4 CFU and the CFU (wild type strain W3110 [6]; [15]) was 7 × 10^2 CFU. The CFU (wild type strain W3110 [6]; [16]) was 0 CFU, the “time to killing of all cells” value (wild type strain W3110 [6]; [17]) was 5 days and the viable bacteria left (wild type strain W3110 [6]; [25]) was “about 10^7 CFU/ml”. The CFU (wild type strain W3110 [6]; [18]) was 1.5 × 10^4 CFU, the CFU (wild type strain W3110 [6]; [19]) was 5 × 10^9 CFU and the CFU (wild type strain W3110 [6]; [20]) was 4 × 10^9 CFU. For the same molecule, the CFU (wild type strain W3110 [6]; [21]) was 1 × 10^8 CFU, the CFU (wild type strain W3110 [6]; [22]) was 4 × 10^6 CFU and the CFU (wild type strain W3110 [6]; [23]) was 2 × 10^2 CFU. The zone of inhibition at 0.1 µg/mL (JHU-313 containing pPhoU [7]) was 27 mm, the zone of inhibition at 0.5 µg/mL (JHU-313 containing pPhoU [7]) was 31 mm and the zone of inhibition at 2 µg/mL (JHU-313 containing pPhoU [7]) was 35 mm. The zone of inhibition at 4 µg/mL (JHU-313 containing pPhoU [7]) was 36 mm, the “CFU after second antibiotic exposure” value (wild type strain W3110 [8]) was 7 × 10^5 CFU/ml and the MBC ([9]; read-out: MBC) was 0.5 µg/mL (≈ 1.57 µM). It also gave an MIC ([9]; read-out: MIC) of 0.125 µg/mL (≈ 0.391 µM), a zone of inhibition at 0.1 µg/mL (W3110) of 24 mm and a zone of inhibition at 0.5 µg/mL (W3110) of 27 mm. The zone of inhibition at 2 µg/mL (W3110) was 30 mm, the zone of inhibition at 4 µg/mL (W3110) was 32 mm and the MBC (wild type strain W3110 [10]; read-out: MBC) was 1 µg/mL (≈ 3.13 µM). It also gave an MIC (wild type strain W3110 [10]; read-out: MIC) of 0.5 µg/mL (≈ 1.57 µM), an MBC (PhoU mutant (JHU-313) [11]; read-out: MBC) of 0.5 µg/mL (≈ 1.57 µM) and an MIC (PhoU mutant (JHU-313) [11]; read-out: MIC) of 0.125 µg/mL (≈ 0.391 µM).
`CN(C)[C@@H]1C(O)=C(C(N)=O)C(=O)[C@@]2(O)C(O)=C3C(=O)c4c(O)cccc4[C@@](C)(O)[C@H]3C[C@@H]12` [Tetracycline] showed a zone of inhibition at 12.5 µg/mL [3] of 34 mm, a zone of inhibition at 25 µg/mL [3] of 34 mm and a zone of inhibition at 50 µg/mL [3] of 34 mm. For the same molecule, the zone of inhibition at 12.5 µg/mL (JHU-313) was 26 mm, the zone of inhibition at 25 µg/mL (JHU-313) was 32 mm and the zone of inhibition at 50 µg/mL (JHU-313) was 32 mm. The zone of inhibition at 12.5 µg/mL (JHU-313 containing pPhoU [7]) was 30 mm, the zone of inhibition at 25 µg/mL (JHU-313 containing pPhoU [7]) was 32 mm and the zone of inhibition at 50 µg/mL (JHU-313 containing pPhoU [7]) was 32 mm. The zone of inhibition at 12.5 µg/mL (W3110) was 22 mm, the zone of inhibition at 25 µg/mL (W3110) was 23 mm and the zone of inhibition at 50 µg/mL (W3110) was 23 mm.
